IC50 data for 15 compounds are collected here from ChEMBL document CHEMBL3739374, “Synthesis and evaluation of anticancer activity of novel andrographolide derivatives” (Medchemcomm, 2015).

One test deals with HeLa. Briefly: Cytotoxicity against human HeLa cells by MTT assay. It counts as functional, cell-based.
For a further test, the system named is ACHN. Put plainly: Cytotoxicity against human ACHN cells by MTT assay. The format is functional, cell-based.
Test [1] can be described thus: Cytotoxicity against rat IEC-6 cells by MTT assay. The format is cell-based. In general terms: Tetrazolium dyes change colour on reduction, which living cells bring about.
Another test deals with A549. Put plainly: Cytotoxicity against human A549 cells by MTT assay. The format is functional, cell-based.
In the next test the test system is B16. Briefly: Cytotoxicity against mouse B16 cells by MTT assay. The format is functional, cell-based.

≈ marks a conversion by molar mass, not a printed value.

Usually IC50 stands for the concentration at which inhibition is half-maximal. A low value points to greater potency in that assay. Turning to `C=C1CC[C@@H]2[C@]3(C)CO[C@@H](CCC)O[C@@H]3CC[C@@]2(C)[C@@H]1C/C=C1/C(=O)OC[C@H]1O`, the IC50 in the test on HeLa worked out at 27 µg/mL (≈ 66.8 µM); in the test on ACHN, 32.9 µg/mL (≈ 81.4 µM); in test [1] it was 14.1 µg/mL (≈ 35 µM); with A549 it was 23 µg/mL (≈ 56.8 µM); in the test with B16 it was 44.4 µg/mL (≈ 110 µM).

Regarding `C=C1CC[C@@H]2[C@]3(C)CO[C@@H](C)O[C@@H]3CC[C@@]2(C)[C@@H]1/C=C/C1=CCOC1=O`, the half-inhibitory concentration (IC50) in the test with HeLa was 56.2 µg/mL (≈ 157 µM); in the test on ACHN, 125 µg/mL (≈ 349 µM); in test [1] it was 94.3 µg/mL (≈ 263 µM); in the test on A549, 88.7 µg/mL (≈ 247 µM); in the test on B16, 62 µg/mL (≈ 173 µM).

Turning to `CC(=O)O[C@@H]1COC(=O)/C1=C/C[C@@H]1[C@@]2(CC[C@@H]3[C@]4(C)CO[C@@H](C)O[C@@H]4CC[C@]31C)CO2`, the IC50 is 7.12 µg/mL (≈ 16.4 µM) in the test with HeLa; 5.58 µg/mL (≈ 12.8 µM) in the test with ACHN; 14.5 µg/mL (≈ 33.4 µM) in test [1]; 4.37 µg/mL (≈ 10.1 µM) with A549; 6.98 µg/mL (≈ 16.1 µM) in the test with B16.

Turning to `C=C1CC[C@@H]2[C@](C)(CO)[C@H](O)CC[C@@]2(C)[C@@H]1C/C=C1/C(=O)OC[C@H]1O` [ANDROGRAPHOLIDE], the IC50 with HeLa was 10.4 µg/mL (≈ 29.7 µM); in the test on ACHN it was 3.03 µg/mL (≈ 8.65 µM); in test [1] it was 8.26 µg/mL (≈ 23.6 µM); in the test on A549 it was 9.71 µg/mL (≈ 27.7 µM); with B16, 7.54 µg/mL (≈ 21.5 µM).

As for `C=C1CC[C@@H]2[C@]3(C)CO[C@@H](CCCCC)O[C@@H]3CC[C@@]2(C)[C@@H]1C/C=C1/C(=O)OC[C@H]1O`, the IC50 in the test with HeLa stood at 8.51 µg/mL (≈ 19.7 µM); with ACHN, 9.54 µg/mL (≈ 22.1 µM); in test [1] it was 22.4 µg/mL (≈ 51.7 µM); in the test with A549 it was 7.07 µg/mL (≈ 16.3 µM); with B16, 10 µg/mL (≈ 23.1 µM).

Turning to `C=C1CC[C@@H]2[C@]3(C)CO[C@@H](C)O[C@@H]3CC[C@@]2(C)[C@@H]1C/C=C1\C=COC1=O`, the IC50 in the test with HeLa worked out at 48.6 µg/mL (≈ 135 µM); in the test on ACHN, 60.6 µg/mL (≈ 169 µM); in test [1], 40 µg/mL (≈ 112 µM); in the test with A549, 46.9 µg/mL (≈ 131 µM); in the test on B16, 43 µg/mL (≈ 120 µM).

Regarding `C=C1CC[C@@H]2[C@](C)(CO)[C@H](O)CC[C@@]2(C)[C@@H]1/C=C/C1=CCOC1=O`, the IC50 with HeLa came to 149 µg/mL (≈ 448 µM); in the test on ACHN, 328 µg/mL (≈ 986 µM); in test [1] it was 169 µg/mL (≈ 509 µM); in the test on A549 it was 117 µg/mL (≈ 353 µM); with B16 it was 25.2 µg/mL (≈ 75.7 µM).

In the case of `C=C1CC[C@@H]2[C@]3(C)CO[C@@H](CC)O[C@@H]3CC[C@@]2(C)[C@@H]1C/C=C1/C(=O)OC[C@H]1O`, the IC50 was 8.91 µg/mL (≈ 22.8 µM) with HeLa; 14.7 µg/mL (≈ 37.6 µM) in the test with ACHN; 14.2 µg/mL (≈ 36.4 µM) in test [1]; 8.12 µg/mL (≈ 20.8 µM) with A549; 10.2 µg/mL (≈ 26.2 µM) with B16.

Turning to `C[C@@H]1OC[C@@]2(C)[C@H]3CC[C@@]4(CO4)[C@@H](C/C=C4/C(=O)OC[C@H]4O)[C@]3(C)CC[C@H]2O1`, the IC50 was determined as 6.97 µg/mL (≈ 17.8 µM) in the test with HeLa; 4.49 µg/mL (≈ 11.4 µM) in the test on ACHN; 8.76 µg/mL (≈ 22.3 µM) in test [1]; 4.34 µg/mL (≈ 11.1 µM) in the test on A549; 6.34 µg/mL (≈ 16.2 µM) in the test with B16.

As to `C=C1CC[C@@H]2[C@]3(C)CO[C@@H](C)O[C@@H]3CC[C@@]2(C)[C@@H]1C/C=C1/C(=O)OC[C@H]1OC(C)=O`, the IC50 in the test on HeLa is 4.43 µg/mL (≈ 10.6 µM); in the test with ACHN, 8.54 µg/mL (≈ 20.4 µM); in test [1], 7.23 µg/mL (≈ 17.3 µM); in the test with A549, 3.34 µg/mL (≈ 7.98 µM); with B16, 4.01 µg/mL (≈ 9.58 µM).

As for `C=C1CC[C@@H]2[C@]3(C)CO[C@@H](CCCC)O[C@@H]3CC[C@@]2(C)[C@@H]1C/C=C1/C(=O)OC[C@H]1O`, the IC50 in the test with HeLa is 14.1 µg/mL (≈ 33.6 µM); in the test on ACHN, 15.3 µg/mL (≈ 36.7 µM); in test [1], 31.2 µg/mL (≈ 74.6 µM); in the test with A549, 33.5 µg/mL (≈ 80.1 µM); in the test with B16 it was 21.1 µg/mL (≈ 50.4 µM).

On to `C[C@@H]1OC[C@@]2(C)[C@H]3CC[C@@]4(CO4)[C@@H](/C=C/C4=CCOC4=O)[C@]3(C)CC[C@H]2O1`, for which the IC50 in the test with HeLa is 7.78 µg/mL (≈ 20.8 µM); in the test on ACHN, 57.3 µg/mL (≈ 153 µM); in test [1], 35.1 µg/mL (≈ 93.6 µM); with A549, 18.2 µg/mL (≈ 48.6 µM); with B16 it was 44.1 µg/mL (≈ 118 µM).

As to `COc1cccc2c1C(=O)c1c(O)c3c(c(O)c1C2=O)C[C@@](O)(C(=O)CO)C[C@@H]3O[C@H]1C[C@H](N)[C@H](O)[C@H](C)O1` [DOXORUBICIN], the IC50 with HeLa stood at 1.28 µg/mL (≈ 2.35 µM); with ACHN, 2.08 µg/mL (≈ 3.83 µM); in test [1], 2.6 µg/mL (≈ 4.78 µM); in the test with B16, 3.16 µg/mL (≈ 5.81 µM).

Regarding `C=C1CC[C@@H]2[C@]3(C)CO[C@@H](C)O[C@@H]3CC[C@@]2(C)[C@@H]1C/C=C1/C(=O)OC[C@H]1O`, the IC50 worked out at 4.27 µg/mL (≈ 11.3 µM) in the test on HeLa; 2.47 µg/mL (≈ 6.56 µM) in the test with ACHN; 6.34 µg/mL (≈ 16.8 µM) in test [1]; 2.43 µg/mL (≈ 6.45 µM) in the test on A549; 4.78 µg/mL (≈ 12.7 µM) with B16.

On to `C=C1CC[C@@H]2[C@]3(C)CO[C@@H](c4ccccc4)O[C@@H]3CC[C@@]2(C)[C@@H]1C/C=C1/C(=O)OC[C@H]1O`, for which the concentration for half-maximal inhibition (IC50) in the test with HeLa turned out to be 3.8 µg/mL (≈ 8.66 µM); with ACHN it was 4.78 µg/mL (≈ 10.9 µM); in test [1], 19.2 µg/mL (≈ 43.8 µM); with A549 it was 4.07 µg/mL (≈ 9.28 µM); in the test on B16, 9.54 µg/mL (≈ 21.8 µM).
